{"source": "patent US12655111B2", "about": "“Phenazine-based compounds” (CMBLU Energy AG, priority 2020, dated 2026)"}
{"assay": "Redox flow battery cell test (flow-through laboratory cell), galvanostatic charge/discharge cycling with phenazine anolyte and ferrocyanide catholyte", "type": "physicochemical", "details": "range: (i) upper charging value minus initial discharging value, (ii) initial charging value minus ultimate discharging value; from Table 1 (for II 0.87M)", "excerpt": "FT-Cells (“Flow Through”):\nFor electrochemical characterization, a small laboratory cell was used. A graphite felt (with an area of 6 cm^2, 6 mm in thickness, supplier: SGL Sigracell GFA 6EA) in combination with a bipolar plate (4.1 cm×4.1 cm, SGL Sigracell TF6) was employed as both the positive and negative electrode. A cation exchange membrane (630K or 620PE, supplier: fumatech) was used to separate the positive and negative electrolytes. The membrane was conditioned in 0.5 M Base (KOH/NaOH=50 mol %/50 mol %) for at least 150 h prior to each test. An anolyte volume of 12 mL was used for every experiment while the pH of the anolyte solution is adjusted using a 1:1 mixture of KOH/NaOH or solely KOH. The catholyte compositions are listed in table 1 and the catholyte was always employed in at least 1.05 fold stoichiometric excess in order to obtain charge limitation solely due to the phenazine electrolyte (see table 1). The catholyte volume for (IV) is 60 mL (0.4 M KOH; 0.4 M NaOH), for (III) 30 mL (0.2 M KOH and 0.2 M NaOH), and for (I) 20 mL (0.3 M KOH and 0.3 M NaOH). Both electrolytes were pumped by peristaltic pumps (Drifton BT100-1L, Cole Parmer Ismatec MCP and BVP Process IP 65) at a rate of 24 mL/min to the corresponding electrodes, respectively. The electrolyte reservoirs were purged with N2 gas for 1 h before start of charging and the inert atmosphere was maintained during the course of the experiments.\nElectrochemical testing was performed on a BaSyTec (BaSyTec GmbH, 89176 Asselfingen, Germany) or a Bio-Logic (Bio-Logic Science Instruments, Seyssinet-Pariset 38170, France) battery test system. For galvanostatic cycling, the cell was charged at a current density of […] and discharged at the same current density with the in table 1 listed voltage cut-offs. […]"}
{"smiles": "CN(CCO)c1cc2nc3ccc(S(=O)(=O)O)cc3nc2cc1O", "note": "[IV, 7-[(2-hydroxyethyl)(methyl)amino]-8-hydroxyphenazine-2-sulfonic acid]", "difference in plateaus [V]": "0.20-0.25 V"}
{"smiles": "CN(C)c1cc2nc3ccc(S(=O)(=O)O)cc3nc2cc1O", "note": "[I, 7-(dimethylamino)-8-hydroxyphenazine-2-sulfonic acid]", "difference in plateaus [V]": "0.15-0.16 V"}
{"smiles": "O=S(=O)(O)c1ccc2nc3cc(O)c(O)cc3nc2c1", "note": "[DHPS, 7,8-Dihydroxyphenazine-2-sulfonic acid, reference compound]", "difference in plateaus [V]": "0.29-0.32 V"}
